From patent US20230241050A1, “APPLICATIONS OF HPK1 KINASE INHIBITOR IN PREVENTING AND/OR TREATING ANIMAL PATHOGEN INFECTION” (ZHUHAI YUFAN BIOTECHNOLOGIES CO., LTD, priority 2020, published 2023)

Key:
[1] = system: feline infectious peritonitis (FIP), feline coronavirus positive; assay: Treatment of a cat with recurrent feline infectious peritonitis (Example 1): daily clinical observation, body weight, chest X-ray; assay type: in vivo; settings: for Food intake: D0: Decreased intake - 3; for Mental state: D0: Listless - 3; for Defecation condition / Respiratory state: D0: Normal - 5; for Body temperature Afternoon: D0 value 38.5; for body weight: 2.5 kg at enrollment (D0)
Experimental: Lele, a British shorthair cat, 8 months old, female, unneutered, weighing 2.5 kg. The cat had symptoms of elevated body temperature, mental depression, anorexia, and enlarged abdominal circumference in January, 2020. One week later, the cat was admitted. On January 18, the cat was diagnosed with feline infectious peritonitis (FIP) positive. After being treated with GS-441524 for 3 days, the cat was then given furosemide, Synulox®, prednisolone and itraconazole (P.O., q24h, 10 mg/kg) for 1 month. The drugs were discontinued after ascites regressed. […] The cat was enrolled on April 8, and was treated with the drug of the present invention at 2.0 mg/kg (SC, q24h) on days 1-14 (D1-14). Proper supportive treatments were given at the same time, including adjuvant treatment such as Moringa (a hepatoprotective drug), Lysinphirst (lysine) and Doctor Dolittle® (lactoferrin).
The pharmaceutically active compound described above is a pure powder have the following structure. The compound was added to a 0.9% normal saline (50 mL of endotoxin-free water and 0.45 g of NaCl), and the resulting mixture was uniformly mixed and filtered through a filter membrane to give a clarified solution. The diluted compound was stored in a plastic-sealed sterile vial, stored in a refrigerator at 4° C., gently brought to room temperature before injection, and administered using a disposable syringe. The injection ranged across the back, starting from 2 cm posterior to the scapula to the middle of the lumbar spine, half of the distance of the adjacent chest to flank.
The treatment was given by injection in the morning every day, body temperature, appetite, mental state and respiratory state were measured and evaluated at 15:00 pm, and urination and defecation conditions were recorded.
The body weight increased by 9% during and after the treatment.

[2] = system: feline infectious peritonitis (FIP); assay: Clinical survival of cats with clinically confirmed FIP, treatment group vs control group (Example 2); assay type: in vivo, cat; settings: 14 days; 2.0 mg/kg SC q24h D1-D14 plus supportive treatment, 7 cats vs 8 control cats; both pre-treated with GS-441524 for 3 days; Log Rank and Breslow tests, P < 0.05
Description: A total of 15 cats with clinically confirmed FIP were enrolled, with hydrothorax/ascites, positive CT value by PCR, and no neurological symptoms. 8 cats were allocated into the control group, and 7 cats were allocated into the treatment group.
The groups were pre-treated with GS-441524 for 3 days. For the control group, necessary supportive treatment was given on D1-D14. For the treatment group, after 3 days of observation, necessary supportive treatment and the drug of the present invention (2.0 mg/kg, SC, q24 h) were given on D1-D14.
The occurrence of death or neurological symptoms was judged as clinical death, and the clinical survival curve was plotted after 14 days.

CN1CCC(c2ncc(-c3cnc(N)c(OCc4cccc(C#CC(C)(C)O)c4)c3)s2)CC1 [the drug of the present invention, 4-(3-{2-amino-5-[2-(1-methyl-piperidin-4-yl)thiazol-5-yl]pyridin-3-yloxymethyl}phenyl)-2-methyl-but-3-yn-2-ol]
Food intake ([1]; D1 (4-9), 2.0 mg/kg SC q24h): Decreased intake - 3
Mental state ([1]; D1 (4-9), 2.0 mg/kg SC q24h): Slightly improved - 3.5
Defecation condition ([1]; D1 (4-9), 2.0 mg/kg SC q24h): Normal
Respiratory state ([1]; D1 (4-9), 2.0 mg/kg SC q24h): Normal
Body temperature Afternoon ([1]; D1 (4-9), 2.0 mg/kg SC q24h): 38.6 °C
Food intake ([1]; D2 (4-10), 2.0 mg/kg SC q24h): Improved - 4
Mental state ([1]; D2 (4-10), 2.0 mg/kg SC q24h): Improved - 4
Defecation condition ([1]; D2 (4-10), 2.0 mg/kg SC q24h): Normal
Respiratory state ([1]; D2 (4-10), 2.0 mg/kg SC q24h): Normal
Body temperature Afternoon ([1]; D2 (4-10), 2.0 mg/kg SC q24h): 38.1 °C
Food intake ([1]; D3 (4-11), 2.0 mg/kg SC q24h): Good - 5
Mental state ([1]; D3 (4-11), 2.0 mg/kg SC q24h): Good - 5
Defecation condition ([1]; D3 (4-11), 2.0 mg/kg SC q24h): Normal
Respiratory state ([1]; D3 (4-11), 2.0 mg/kg SC q24h): Normal
Body temperature Afternoon ([1]; D3 (4-11), 2.0 mg/kg SC q24h): 38 °C
Food intake ([1]; D4 (4-12), 2.0 mg/kg SC q24h): Good
Mental state ([1]; D4 (4-12), 2.0 mg/kg SC q24h): Good
Defecation condition ([1]; D4 (4-12), 2.0 mg/kg SC q24h): Normal
Respiratory state ([1]; D4 (4-12), 2.0 mg/kg SC q24h): Normal
Body temperature Afternoon ([1]; D4 (4-12), 2.0 mg/kg SC q24h): 38.3 °C
Food intake ([1]; D5 (4-13), 2.0 mg/kg SC q24h): Good
Mental state ([1]; D5 (4-13), 2.0 mg/kg SC q24h): Good
Defecation condition ([1]; D5 (4-13), 2.0 mg/kg SC q24h): Normal
Respiratory state ([1]; D5 (4-13), 2.0 mg/kg SC q24h): Normal
Body temperature Afternoon ([1]; D5 (4-13), 2.0 mg/kg SC q24h): 38.3 °C
Food intake ([1]; D6 (4-14), 2.0 mg/kg SC q24h): Good
Mental state ([1]; D6 (4-14), 2.0 mg/kg SC q24h): Good
Defecation condition ([1]; D6 (4-14), 2.0 mg/kg SC q24h): Normal
Respiratory state ([1]; D6 (4-14), 2.0 mg/kg SC q24h): Normal
Body temperature Afternoon ([1]; D6 (4-14), 2.0 mg/kg SC q24h): 38.3 °C
body weight ([1]; D7 (4-15), 2.0 mg/kg SC q24h): 2.75 kg body weight
Food intake ([1]; D7 (4-15), 2.0 mg/kg SC q24h): Good
Mental state ([1]; D7 (4-15), 2.0 mg/kg SC q24h): Good
Defecation condition ([1]; D7 (4-15), 2.0 mg/kg SC q24h): Normal
Respiratory state ([1]; D7 (4-15), 2.0 mg/kg SC q24h): Normal
Body temperature Afternoon ([1]; D7 (4-15), 2.0 mg/kg SC q24h): 38.1 °C
Food intake ([1]; D8 (4-16), 2.0 mg/kg SC q24h): Good
Mental state ([1]; D8 (4-16), 2.0 mg/kg SC q24h): Good
Defecation condition ([1]; D8 (4-16), 2.0 mg/kg SC q24h): Normal
Respiratory state ([1]; D8 (4-16), 2.0 mg/kg SC q24h): Normal
Body temperature Afternoon ([1]; D8 (4-16), 2.0 mg/kg SC q24h): 38 °C
Food intake ([1]; D9 (4-17), 2.0 mg/kg SC q24h): Good
Mental state ([1]; D9 (4-17), 2.0 mg/kg SC q24h): Good
Defecation condition ([1]; D9 (4-17), 2.0 mg/kg SC q24h): Normal
Respiratory state ([1]; D9 (4-17), 2.0 mg/kg SC q24h): Normal
Body temperature Afternoon ([1]; D9 (4-17), 2.0 mg/kg SC q24h): 38.2 °C
Food intake ([1]; D10 (4-18), 2.0 mg/kg SC q24h): Good
Mental state ([1]; D10 (4-18), 2.0 mg/kg SC q24h): Good
Defecation condition ([1]; D10 (4-18), 2.0 mg/kg SC q24h): Normal
Respiratory state ([1]; D10 (4-18), 2.0 mg/kg SC q24h): Normal
Body temperature Afternoon ([1]; D10 (4-18), 2.0 mg/kg SC q24h): 38.3 °C
Food intake ([1]; D11 (4-19), 2.0 mg/kg SC q24h): Good
Mental state ([1]; D11 (4-19), 2.0 mg/kg SC q24h): Good
Defecation condition ([1]; D11 (4-19), 2.0 mg/kg SC q24h): Normal
Respiratory state ([1]; D11 (4-19), 2.0 mg/kg SC q24h): Normal
Body temperature Afternoon ([1]; D11 (4-19), 2.0 mg/kg SC q24h): 38.4 °C
Food intake ([1]; D12 (4-20), 2.0 mg/kg SC q24h): Good
Mental state ([1]; D12 (4-20), 2.0 mg/kg SC q24h): Good
Defecation condition ([1]; D12 (4-20), 2.0 mg/kg SC q24h): Normal
Respiratory state ([1]; D12 (4-20), 2.0 mg/kg SC q24h): Normal
Body temperature Afternoon ([1]; D12 (4-20), 2.0 mg/kg SC q24h): 38.5 °C
Body temperature Morning ([1]; D13 (4-21), 2.0 mg/kg SC q24h): 38.9 °C
Food intake ([1]; D13 (4-21), 2.0 mg/kg SC q24h): Good
Mental state ([1]; D13 (4-21), 2.0 mg/kg SC q24h): Good
Defecation condition ([1]; D13 (4-21), 2.0 mg/kg SC q24h): Normal
Respiratory state ([1]; D13 (4-21), 2.0 mg/kg SC q24h): Normal
Body temperature Afternoon ([1]; D13 (4-21), 2.0 mg/kg SC q24h): 38.5 °C
Body temperature Morning ([1]; D14 (4-22), 2.0 mg/kg SC q24h): 38.4 °C
body weight ([1]; D14 (4-22), 2.0 mg/kg SC q24h): 2.75 kg body weight
Food intake ([1]; D14 (4-22), 2.0 mg/kg SC q24h): Good
Mental state ([1]; D14 (4-22), 2.0 mg/kg SC q24h): Good
Defecation condition ([1]; D14 (4-22), 2.0 mg/kg SC q24h): Normal
Respiratory state ([1]; D14 (4-22), 2.0 mg/kg SC q24h): Normal
Body temperature Afternoon ([1]; D14 (4-22), 2.0 mg/kg SC q24h): 38.4 °C
clinical response (appetite, mental state, weight) ([1]; after 2 weeks of treatment, 2.0 mg/kg SC q24h): remarkable clinical response with improved appetite and mental state, and weight gain
body weight increase ([1]; during and after the treatment (D1-14, 2.0 mg/kg SC q24h)): 9%
hydrothorax (chest X-ray) ([1]; since about 7 days after the treatment, 2.0 mg/kg SC q24h): completely regressed
body temperature maintained in the normal range ([1]; throughout the treatment (D1-14, 2.0 mg/kg SC q24h), no fever at enrollment): 38-38.5 °C
clinical survival curve (death or neurological symptoms = clinical death), treatment group vs control group [2]: significant difference
